Measured values taken from ChEMBL document CHEMBL5325471, “Identification of new modulator of DNA repairing pathways based on natural product (±)-peharmaline A” (Bioorg Med Chem, 2023).
Active and inactive are the calls of the source. The calls are words filed in the database; no cut-off is given here.

Legend:
HCT-116 [1] = experiment: Induction of cell cycle arrest in human HCT-116 cells assessed as accumulation of cells at G1 phase at 0.5 uM incubated for 24 hrs by RNase/PI staining-based FACS flow cytometry analysis (reference value: 51 %); format: functional
HCT-116 [2] = experiment: Inhibition of DNA repairing pathway in human HCT-116 cells assessed as increase in gamma-H2AX level at 0.25 to 2 uM incubated for 24 hrs by immunoblotting analysis; format: functional, cell-based; conditions: dose 0.25-2 µM
HCT-116 [3] = experiment: Induction of DNA damage in human HCT-116 cell assessed as increase in olive tail moment at 1 uM incubated for 24 hrs by EtBr-based alkaline Comet assay (Rvb= 0.26%); format: functional
HCT-116 [4] = experiment: Inhibition of DNA repairing pathway in human HCT-116 cells assessed as increase in cleaved PARP level at 0.25 to 2 uM incubated for 24 hrs by immunoblotting analysis; format: functional, cell-based; conditions: dose 0.25-2 µM
HCT-116 [5] = experiment: Induction of DNA damage in human HCT-116 cell assessed as comet tail formation at 1 uM incubated for 24 hrs by EtBr-based alkaline Comet assay (Rvb= 2.99 %); format: functional
HCT-116 [6] = experiment: Induction of DNA damage in human HCT-116 cells assessed as micronuclei formation at 0.5 to 2 uM incubated for 24 hrs by DAPI staining based immunofluorescence analysis; format: functional, cell-based; conditions: dose 0.5-2 µM
HCT-116 [7] = experiment: Inhibition of epithelial-to-mesenchymal transition in human HCT-116 cells assessed as downregulation of Snail-1 protein expression by immunoblot analysis; format: functional, cell-based
4T1 [8] = experiment: Antitumor activity against mouse 4T1 cells implanted in BALB/c mouse assessed as reduction in tumor volume at 20 mg/kg, ip administered every alternate day for 2 weeks relative to control; format: functional; parameters: scale not given: the % may be the effect or the level left
HCT-116 [9] = experiment: Induction of DNA double-strand breaks in human HCT-116 cells assessed as increase in gammaH2AX accumulation at 0.25 to 2 uM incubated for 24 hrs by immunoblotting analysis; format: functional, cell-based; conditions: dose 0.25-2 µM
HCT-116 [10] = experiment: Induction of cell cycle arrest in human HCT-116 cells assessed as accumulation of cells at G2 phase at 0.5 uM incubated for 24 hrs by RNase/PI staining-based FACS flow cytometry analysis (reference value: 33 %); format: functional
HCT-116 [11] = experiment: Inhibition of DNA repairing pathway in human HCT-116 cells assessed as downregulation of XRCC11 protein expression at 0.25 to 2 uM incubated for 24 hrs by immunoblotting analysis; format: functional, cell-based; conditions: dose 0.25-2 µM
HCT-116 [12] = experiment: Inhibition of DNA repairing pathway in human HCT-116 cells assessed as downregulation of H2AX protein expression at 0.25 to 2 uM incubated for 24 hrs by immunoblotting analysis; format: functional, cell-based; conditions: dose 0.25-2 µM
[13] = Toxicity in BALB/c mouse implanted with mouse 4T1 cells at 20 mg/kg, ip administered every alternate day for 2 weeks; format: organism-based; conditions: in vivo, 336 h
HCT-116 [14] = experiment: Inhibition of epithelial-to-mesenchymal transition in human HCT-116 cells assessed as downregulation of Twist-1 protein expression by immunoblot analysis; format: functional, cell-based
HCT-116 [15] = experiment: Induction of DNA damage in human HCT-116 cell assessed as increase in olive tail moment at 0.5 uM incubated for 24 hrs by EtBr-based alkaline Comet assay (Rvb= 0.26%); format: functional
[16] = AUC (0 to t) in BALB/c mouse at 20 mg/kg, ip measured upto 24 hrs by LC-MS/MS analysis; format: ADME, organism-based; parameters: time < 24 hrs, dose 20 mg/kg, route ip; conditions: in vivo
PC-3 = experiment: Antiproliferative activity against human PC-3 cells assessed as cell growth inhibition incubated for 44 hrs by MTT assay; format: functional, cell-based; conditions: PC-3, 44 h
MCF7 = experiment: Antiproliferative activity against human MCF7 cells assessed as cell growth inhibition incubated for 44 hrs by MTT assay; format: functional, cell-based; conditions: MCF7, 44 h
[17] = AUC (0 to infinity) in BALB/c mouse at 20 mg/kg, ip measured upto 24 hrs by LC-MS/MS analysis; format: ADME, organism-based; parameters: dose 20 mg/kg, time < 24 hrs, route ip; conditions: in vivo
HCT-116 [18] = experiment: Inhibition of DNA repairing pathway in human HCT-116 cells assessed as downregulation of MRE11 protein expression at 0.25 to 2 uM incubated for 24 hrs by immunoblotting analysis; format: functional, cell-based; conditions: dose 0.25-2 µM
HCT-116 [19] = experiment: Induction of cell cycle arrest in human HCT-116 cells assessed as accumulation of cells at S phase at 1 uM incubated for 24 hrs by RNase/PI staining-based FACS flow cytometry analysis (reference value: 11 %); format: functional
HCT-116 [20] = experiment: Induction of cell cycle arrest in human HCT-116 cells assessed as accumulation of cells at S phase at 2 uM incubated for 24 hrs by RNase/PI staining-based FACS flow cytometry analysis (reference value: 11 %); format: functional
HCT-116 [21] = experiment: Induction of DNA damage in human HCT-116 cells assessed as increase in phosphorylated gamma-H2AX foci formation at 0.5 to 2 uM incubated for 24 hrs by DAPI staining based immunofluorescence analysis; format: functional, cell-based; conditions: dose 0.5-2 µM
[22] = Cmax in BALB/c mouse at 20 mg/kg, ip measured upto 24 hrs by LC-MS/MS analysis; format: ADME, organism-based; parameters: dose 20 mg/kg, time < 24 hrs, route ip; conditions: in vivo
4T1 [23] = experiment: Antitumor activity against mouse 4T1 cells implanted in BALB/c mouse assessed as reduction in tumor weight at 20 mg/kg, ip administered every alternate day for 2 weeks relative to control; format: functional; parameters: scale not given: the % may be the effect or the level left
[24] = Volume of distribution in BALB/c mouse at 20 mg/kg, ip measured upto 24 hrs by LC-MS/MS analysis; format: ADME, organism-based; conditions: in vivo
HCT-116 [25] = experiment: Induction of cell cycle arrest in human HCT-116 cells assessed as accumulation of cells at S phase at 0.5 uM incubated for 24 hrs by RNase/PI staining-based FACS flow cytometry analysis (reference value: 11 %); format: functional
[26] = Elimination half life in BALB/c mouse at 20 mg/kg, ip measured upto 24 hrs by LC-MS/MS analysis; format: ADME, organism-based; conditions: in vivo, read-out: beta t1/2 (converted)
HCT-116 [27] = experiment: Inhibition of epithelial-to-mesenchymal transition in human HCT-116 cells assessed as reduction in VEGF-induced cell scattering incubated for 48 hrs by inverted microscopic analysis; format: functional, cell-based
HCT-116 [28] = experiment: Inhibition of epithelial-to-mesenchymal transition in human HCT-116 cells assessed as upregulation of E-cadherin protein expression by immunoblot analysis; format: functional, cell-based
HCT-116 [29] = experiment: Inhibition of DNA repairing pathway in human HCT-116 cells assessed as increase in p-Chk2 level at 0.25 to 2 uM incubated for 24 hrs by immunoblotting analysis; format: functional, cell-based; conditions: dose 0.25-2 µM
HCT-116 [30] = experiment: Inhibition of DNA repairing pathway in human HCT-116 cells assessed as downregulation of Rad51 protein expression at 0.25 to 2 uM incubated for 24 hrs by immunoblotting analysis; format: functional, cell-based; conditions: dose 0.25-2 µM
HCT-116 [31] = experiment: Induction of DNA damage in human HCT-116 cell assessed as comet tail formation at 4 uM incubated for 24 hrs by EtBr-based alkaline Comet assay (Rvb= 2.99 %); format: functional
HCT-116 [32] = experiment: Induction of DNA damage in human HCT-116 cell assessed as comet tail formation at 2 uM incubated for 24 hrs by EtBr-based alkaline Comet assay (Rvb= 2.99 %); format: functional
[33] = Cytotoxicity against human fR2 cells assessed as cell growth inhibition incubated for 44 hrs by MTT assay; format: toxicity, cell-based

COC(=O)[C@]1([C@H]2CCn3c2nc2ccccc2c3=O)NCCc2c1[nH]c1ccccc21 (racemic)
Activity (HCT-116 [1]): 66% | inhibition (HCT-116 [2]): Active | Activity (HCT-116 [3]): 9.53% | inhibition (HCT-116 [4]): Active | Activity (HCT-116 [5]): 48% | Activity (HCT-116 [6]): Active | inhibition (HCT-116 [7]): Active | Activity (4T1 [8]): 89.3% | Activity (HCT-116 [9]): Active | Activity (HCT-116 [10]): 24% | inhibition (HCT-116 [11]): Active | inhibition (HCT-116 [12]): Active | Activity [13]: Non-Toxic | inhibition (HCT-116 [14]): Active | Activity (HCT-116 [15]): 5.21% | AUC(0-t) at 24 h [16]: 11000 ng·h/mL | IC50 (PC-3): 6.05 µM | IC50 (MCF7): 1.41 µM | AUC(0-inf) [17]: 11200 ng·h/mL | inhibition (HCT-116 [18]): Active | Activity (HCT-116 [19]): 7% | Activity (HCT-116 [20]): 4% | Activity (HCT-116 [21]): Active | Cmax [22]: 4490 ng/mL | Activity (4T1 [23]): 63% | Vd [24]: 4.4 L/kg | Activity (HCT-116 [25]): 7% | half-life [26]: 1.6 h | inhibition (HCT-116 [27]): Active | inhibition (HCT-116 [28]): Active | inhibition (HCT-116 [29]): Active | inhibition (HCT-116 [30]): Active | Activity (HCT-116 [31]): 61.4% | Activity (HCT-116 [32]): 51.03% | IC50 at 44 h [33]: 19.7 µM
